From patent publication US20100105628A1, “REDUCING POST-OPERATIVE ADHESION FORMATION WITH INTRAPERITONEAL GLUTAMINE” (UNIVERSITY OF SASKATCHEWAN, priority 2007, published 2010)
Values after ≈ are worked out from the molar mass of the structure shown. Peptide text beside a SMILES is read from it.

Key:
[1] = cited from earlier work
[2] = system: male Wistar rats; test: modified cecal puncture with pulstring, post-operative adhesion formation (Example 1); format: in vivo, rat; settings: for complications due to intraperitoneal use: 0.3-1.5 g/kg intra-peritoneally; for acute inflammatory response (macrophages and macrophage chemotactic proteins): days 3-7
Method: 70 plus male Wistar rats (over 350 g each) were assessed histologically on post-operative days 1, 3, 5, 7, 10, 30, and at about 6 weeks. The rats were randomly distributed based on the mode of treatment, type of sutures and presence or absence of hemorrhage during surgery. Initially, there were three surgery groups (alanyl-glutamine treatment, saline, no treatment) plus a control (no surgery). A fifth group using L-glutamine instead of alanyl-glutamine was included after preliminary results were obtained.
The rats were anaesthetized with halothane/Ketamine. Open surgery involving a midline sub-umbilical incision and a modified cecal puncture with pulstring to prevent soilage after abdominal closure was done. The procedure involved some fecal extrusion, mimicking clinical scenarios of iatrogenic/traumatic perforations of the bowel. Alanyl-glutamine [Degussa; Coubevoie, France] (0.3 g/kg-1.5 g/kg); saline (5 ml); or L-glutamine [Wiler; PCCA] (1.5 g/kg) was instilled into the peritoneal cavity from a syringe. The cecum, abdomen, and the skin were closed in layers using the same suture. Various absorbable (3/0 Vicryl™, 3/0 Monocryl™, 3/0 PDS™, 2/0 Maxon™) and non-absorbable sutures (3/0 Prolene™, 3/0 Ethibond™, 4/0 & 5/0 Surgilene™, 3/0 Novafil™) were used. The wound was infiltrated with local anesthetic. The animals were given sufficient chow to eat (20 g/day≈2 mmole/kg/day). The gastrointestinal tract and omentum were harvested from the stomach to the sigmoid colon and fixed in formaldehyde solution for evaluation.
The severity of adhesions was assessed histologically using standard Haematoxylin & Eosin and Masson trichrome stained slides. The latter helped delineate the degree of fibrosis and collagen deposition.
Semi-quantitative analysis was done by scoring the average number of milky spots per high-power-field (HPF). Quantitative statistical analysis was done using the T-test between the experimental groups. Milky spots are a marker for inflammation and adhesion formation.
We evaluated macrophage activity following the abdominal surgery using a macrophage chemotactic protein (MCP1) antibody stain. MCP1 is a marker for macrophage activity. […] The fact that MCP1 was reduced by the treatment but was not completely absent is significant since complete absence is not desirable as it is associated with peritonitis and septic complications post-laparotomy.

[3] = system: rats; test: cecal puncture with Marlex mesh inserted, adhesion score of Zuhlke (Example 2); format: in vivo, rat; settings: day 90
Method: Previous studies show a high incidence of adhesion formation when surgical mesh is employed as a reinforcing material [6a, 6b]. We repeated trials as described in Example 1, inserting Marlex™ mesh during the procedure on the surgical groups.
Severity of adhesions was assessed at day 90 using the adhesion score of Zuhlke, et al.. This scoring procedure has been described in the literature for assessment of other potential treatments for adhesions. […] This differs from previous measurements of adhesions using polypropylene mesh which reported up to about 90% adhesion formation [6a].

[4] = system: Sprague-Dawley rats; test: secondary adhesions after adhesiolysis, mesh implanted (Example 3); format: in vivo, rat; settings: three weeks after adhesiolysis and alanyl-glutamine; six months after initial surgery with mesh
Method: Adhesions tend to recur once in place. We examined the effect of alanyl-glutamine treatment on such secondary adhesions. The modified cecal perforation with pulstring closure procedure described in Example 1 was performed on 9 Sprague-Dawley rats. These were divided into 5 groups, each group receiving a different form of mesh (INTERCEED™; PROCEED™; BARD™ composite; prolene; and a mesh which was allowed to be “infected” by repeated re-opening of the wound). The surgical procedure with mesh implacement was performed without application of a glutamine source. Six months after initial surgery, a laparotomy was performed on each rat then adhesiolysis followed by installation of alanyl-glutamine.

[5] = versus saline and non-treatment surgical groups

| SMILES | solubility in water [1] | complications due to intraperitoneal use [2] | acute inflammatory response (macrophages and macrophage chemotactic proteins) [2, 5] | water solubility ([1]; at 20° C.) | adhesion score of Zuhlke [3] | effectiveness of dosage ([2]; 0.3 g/kg intraperitoneal) | effectiveness of dosage ([2]; 1.5 g/kg intraperitoneal) | histological appearance of the peritoneum, adhesion ([2]; 10th post-operative day, intraperitoneal, compared with untreated and saline treated surgical groups) | fibrosis and collagen deposition ([2]; day-10 animals, versus saline and non-treatment surgical groups) | milky spots per 5 high power field (5HPF) ([2]; peritoneum, controls 1 per 5HPF, untreated surgical group 6-7 per 5HPF) | adhesions in all the suture groups (braided and monofilament) ([2]; rat, in vivo) | adhesion, histological, later assessment ([2]; rats assessed at 6 weeks) | recurrence of adhesions (secondary adhesions), scored according to Zuhlke [4] |
| --- | --- | --- | --- | --- | --- | --- | --- | --- | --- | --- | --- | --- | --- |
| NCC(=O)N[C@@H](CCC(N)=O)C(=O)O [Glycyl-glutamine] (H-Gly-Gln-OH) | 154 mg/mL (≈ 758 mM) |  |  |  |  |  |  |  |  |  |  |  |  |
| NC(=O)CC[C@H](N)C(=O)O [L-glutamine] |  | did not observe complications | reduction, but to a lesser extent | 36 mg/mL (≈ 246 mM) |  |  |  |  |  |  |  |  |  |
| C[C@H](N)C(=O)N[C@@H](CCC(N)=O)C(=O)O [alanyl-glutamine] (H-Ala-Gln-OH) | 568 mg/mL (≈ 2610 mM) | did not observe complications | markedly reduced |  | 0-1 | effective | effective | very minimal adhesion | reduced | the same as the controls | prevented adhesions | This result continued | no secondary adhesions were seen |
